Columns and labels:
Format in all cases: cell-based
[1] = tested on: A549 cells; assay: Cell apoptosis assay, Annexin V-FITC/PI dual staining, flow cytometry; conditions: 48 h; for Percentage of Cell Apoptosis (%) Normal Living Cell: lower left quadrant in Figure 3; for Percentage of Cell Apoptosis (%) Early Apoptosis: lower right quadrant in Figure 3
Method: The cell apoptosis was evaluated using Annexin V-FITC/PI dual staining (Beyotime, China). A549 cells (1 × 10^6 cells per well) seeded into 6-well plates (JET, Guangzhou, China) were incubated with DMEM containing various concentrations (2, 4, and 8 μM) of β-carbolines (4B, 6i, 4D, and 6u) for 48 h at 37 °C and 5% CO2. The cells in the supernatant and adherent were collected and washed with PBS, and then the cells were stained with Annexin V-FITC and PI for 20 min at r.t. The samples were analyzed using flow cytometry (Becton Dickinson, San Jose, CA, USA).
Figure 3 The cell apoptosis was detected by flow cytometry using Annexin V-FITC/PI dual staining. A549 cells were treated with 4B, 6i, 4D, and 6u at 2, 4, and 8 μM for 48 h, and then stained with Annexin V-FITC and PI for 15 min at 37 °C. The proportions of the living cells, the early apoptosis cells, and the late apoptotic cells were analyzed by FCS Express 5.0. TEXT PRINTED IN THE PICTURE: 4B: 9.00% (2 μM); 11.89% (2 μM); 75.93% (2 μM); 3.18% (2 μM); 8.92% (4 μM); 27.14% (4 μM); 48.59% (4 μM); 15.35% (4 μM); 3.89% (8 μM); 65.76% (8 μM); 21.95% (8 μM); 8.40% (8 μM) | 6i: 0.77% (2 μM); 20.26% (2 μM); 72.12% (2 μM); 6.85% (2 μM); 9.33% (4 μM); 33.08% (4 μM); 44.94% (4 μM); 12.65% (4 μM); 23.51% (8 μM); 59.73% (8 μM); 12.52% (8 μM); 4.24% (8 μM) | Control: 0.36%; 7.08%; 88.34%; 4.22% | 4D: 2.62% (2 μM); 16.16% (2 μM); 73.94% (2 μM); 7.27% (2 μM); 10.30% (4 μM); 34.96% (4 μM); 47.93% (4 μM); 6.80% (4 μM); 22.79% (8 μM); 54.30% (8 μM); 17.63% (8 μM); 5.28% (8 μM) | 6u: 0.17% (2 μM); 21.64% (2 μM); 66.05% (2 μM); 12.14% (2 μM); 6.92% (4 μM); 54.01% (4 μM); 32.53% (4 μM); 6.54% (4 μM); 2.79% (8 μM); 80.73% (8 μM); 8.83% (8 μM); 7.65% (8 μM) DOUBTS OF THE COPYIST ABOUT THIS PICTURE: The quadrant percentages carry no printed measure. For each plot they are listed in the order upper left, upper right, lower left, lower right. / All quadrant percentages are printed very small and blurred, so 3, 5, 6, 8 and 9 cannot be told apart with certainty in any of them.

[2] = tested on: MCF-7 (breast carcinoma) cell line; assay: MTT cytotoxicity assay, MCF-7; conditions: Homo sapiens, MCF7, 48 h, mean of three independent experiments, read-out: IC50 (μM) Mean ± SD, MCF-7
Method: (§1) All cell lines (A549, SGC-7901, Hela, SMMC-7721, and MCF-7) were purchased from the American Type Culture Collection (Manassas, VA, USA), and were cultured in Dulbecco’s modified Eagle’s medium (DMEM, HycloneLaboratories Inc., Logan, Utah, USA) supplemented with 10% fetal bovine serum (FBS, Gibco&Invitrogen, Carlsbad, CA, USA) at 37 °C and 5% CO2.
(§2) The cytotoxic activities of β-carboline-3-carboxylic acid derivatives were investigated by the MTT method, as previously described. Cells (1 × 10^4 cells per well) seeded into 96-well plates (JET, Guangzhou, China) were incubated with DMEM containing various concentrations (2.5, 5, 10, 20, 40, and 80 μM) of β-carbolines (4A, 4B, 4C, 4D, 6a-6f, 6g-6l, 6m-6r, and 6s-6x) for 48 h at 37 °C and 5% CO2. Then, 10 µL of 5 mg/mL MTT reagent dissolved in PBS (Phosphate buffered saline) was added per well, and plates were incubated at 37 °C for 4 h. The medium was carefully removed and 100 µL dimethyl sulfoxide (DMSO) was added to dissolve the formazan crystals. The absorbance was measured at 490 nm with a microplate reader (ThermoFisher Scientific Inc., Waltham, MA, USA). The β-carbolines were dissolved in DMSO as stock solutions (10 mM) at −20 °C, and diluted in the final experimental solution using DMEM before use. A549 (lung carcinoma), SGC-7901 (gastric carcinoma), Hela (cervical carcinoma), SMMC-7721 (liver carcinoma), and MCF-7 (breast carcinoma) cell lines were used for the antitumor activity screening. The IC50 values were the mean values of three independent experiments.

[3] = tested on: A549 cells; assay: Cell cycle assay, PI single staining, flow cytometry; conditions: 48 h
Method: The cell cycle was determined by PI single staining. A549 cells (1 × 10^6 cells per well) seeded into 6-well plates (JET, Guangzhou, China) were incubated with DMEM containing various concentrations (2, 4, and 8 μM) of β-carbolines (4B, 6i, 4D, and 6u) for 48 h at 37 °C and 5% CO2. The cells were harvested, washed with pre-cooled PBS (4 °C), and fixed with pre-cooled 90% ethanol (4 °C). Then, the cells were incubated with 20 μL RNAse (30 μg/mL) and 20 μL PI (50 μg/mL) (Sigma Aldrich, Saint Louis, MO, USA) for 30 min at 37 °C. The samples were analyzed using flow cytometry (BD FACSCalibur, San Jose, CA, USA).
Figure 2 The cell cycle was detected by flow cytometry using PI single staining. A549 cells were treated with 4B, 6i, 4D, and 6u at 2, 4, and 8 μM for 48 h, and then stained with PI for 30 min at 37 °C. The proportions of cells containing different DNA content were analyzed by FCS Express 5.0 (De Novo Software, Thornhill, Canada).

[4] = tested on: Hela (cervical carcinoma) cell line; assay: MTT cytotoxicity assay, Hela; conditions: Homo sapiens, 48 h, mean of three independent experiments, read-out: IC50 (μM) Mean ± SD, Hela
Method: as §1, §2

SMILES: COC(=O)c1cc2c3ccccc3n(Cc3ccccc3C)c2cn1 [Compound 4B]
- Percentage of Cell Apoptosis (%) Late Apoptosis and Necrosis ([1]; A549, 2 μM): 20.89%
- Percentage of Cell Apoptosis (%) Normal Living Cell ([1]; A549, 2 μM): 75.93%
- Percentage of Cell Apoptosis (%) Early Apoptosis ([1]; A549, 2 μM): 3.18%
- Percentage of Cell Apoptosis (%) Late Apoptosis and Necrosis ([1]; A549, 4 μM): 36.06%
- Percentage of Cell Apoptosis (%) Normal Living Cell ([1]; A549, 4 μM): 48.59%
- Percentage of Cell Apoptosis (%) Early Apoptosis ([1]; A549, 4 μM): 15.35%
- Percentage of Cell Apoptosis (%) Late Apoptosis and Necrosis ([1]; A549, 8 μM): 69.65%
- Percentage of Cell Apoptosis (%) Normal Living Cell ([1]; A549, 8 μM): 21.95%
- Percentage of Cell Apoptosis (%) Early Apoptosis ([1]; A549, 8 μM): 8.40%
- IC50 [2]: > 80 µM
- Percentage of Cell Cycles (%) G1 ([3]; A549, 2 μM): 59.38%
- Percentage of Cell Cycles (%) G2/M ([3]; A549, 2 μM): 15.46%
- Percentage of Cell Cycles (%) S ([3]; A549, 2 μM): 25.16%
- Percentage of Cell Cycles (%) SubG1 ([3]; A549, 2 μM): 6.56%
- Percentage of Cell Cycles (%) G1 ([3]; A549, 4 μM): 43.06%
- Percentage of Cell Cycles (%) G2/M ([3]; A549, 4 μM): 46.96%
- Percentage of Cell Cycles (%) S ([3]; A549, 4 μM): 9.98%
- Percentage of Cell Cycles (%) SubG1 ([3]; A549, 4 μM): 10.49%
- Percentage of Cell Cycles (%) G1 ([3]; A549, 8 μM): 52.09%
- Percentage of Cell Cycles (%) G2/M ([3]; A549, 8 μM): 2.1%
- Percentage of Cell Cycles (%) S ([3]; A549, 8 μM): 45.81%
- Percentage of Cell Cycles (%) SubG1 ([3]; A549, 8 μM): 4.15%
- IC50 [4]: 31.3 ± 2.33 µM

SMILES: O=C(OCCCCCOC(=O)c1cc2c3ccccc3n(Cc3ccccc3F)c2cn1)c1cc2c3ccccc3n(Cc3ccccc3F)c2cn1 [Compound 6u]
- Percentage of Cell Apoptosis (%) Late Apoptosis and Necrosis ([1]; A549, 2 μM): 21.81%
- Percentage of Cell Apoptosis (%) Normal Living Cell ([1]; A549, 2 μM): 66.05%
- Percentage of Cell Apoptosis (%) Early Apoptosis ([1]; A549, 2 μM): 12.14%
- Percentage of Cell Apoptosis (%) Late Apoptosis and Necrosis ([1]; A549, 4 μM): 60.93%
- Percentage of Cell Apoptosis (%) Normal Living Cell ([1]; A549, 4 μM): 32.53%
- Percentage of Cell Apoptosis (%) Early Apoptosis ([1]; A549, 4 μM): 6.54%
- Percentage of Cell Apoptosis (%) Late Apoptosis and Necrosis ([1]; A549, 8 μM): 83.52%
- Percentage of Cell Apoptosis (%) Normal Living Cell ([1]; A549, 8 μM): 8.83%
- Percentage of Cell Apoptosis (%) Early Apoptosis ([1]; A549, 8 μM): 7.65%
- IC50 [2]: 36 ± 2.99 µM
- Percentage of Cell Cycles (%) G1 ([3]; A549, 2 μM): 56.24%
- Percentage of Cell Cycles (%) G2/M ([3]; A549, 2 μM): 19.97%
- Percentage of Cell Cycles (%) S ([3]; A549, 2 μM): 23.79%
- Percentage of Cell Cycles (%) SubG1 ([3]; A549, 2 μM): 6.84%
- Percentage of Cell Cycles (%) G1 ([3]; A549, 4 μM): 47.06%
- Percentage of Cell Cycles (%) G2/M ([3]; A549, 4 μM): 40.34%
- Percentage of Cell Cycles (%) S ([3]; A549, 4 μM): 12.60%
- Percentage of Cell Cycles (%) SubG1 ([3]; A549, 4 μM): 46.25%
- Percentage of Cell Cycles (%) G1 ([3]; A549, 8 μM): 81.62%
- Percentage of Cell Cycles (%) G2/M ([3]; A549, 8 μM): 18.30%
- Percentage of Cell Cycles (%) S ([3]; A549, 8 μM): 0.08%
- Percentage of Cell Cycles (%) SubG1 ([3]; A549, 8 μM): 44.92%
- IC50 [4]: 14.6 ± 0.36 µM

Reference: PMC6214108, “Synthesis and In Vitro Antitumor Activity of Novel Bivalent β-Carboline-3-carboxylic Acid Derivatives with DNA as a Potential Target” (International Journal of Molecular Sciences, 2018)
